{"source": "patent US20240315993A1", "about": "“ANTIPARASITIC COMPOUNDS” (Intervet Inc., priority 2021, published 2024)", "key": {"[1]": {"tested_on": "Adult fleas (Ctenocephalides felis)", "experiment": "Flea feeding assay", "conditions": "48 h, read-out: flea inhibition (% of dead+damaged fleas)", "protocol": "(§1) Adult fleas (Ctenocephalides felis) of defined age were fed on artificial membranes with blood spiked with declining concentrations of a test compound (dissolved in a DMSO-emulsifier-blood mixture). After approximately 48 hours of continuous feeding, flea inhibition (i.e., % of dead+damaged fleas per test concentration) was assessed. The vitality of used parasites was confirmed in negative control groups (i.e., an untreated control and a solvent control)."}, "[2]": {"tested_on": "Adult fleas (Ctenocephalides felis)", "experiment": "Flea contact assay", "conditions": "48 h, read-out: flea inhibition (% of dead+damaged fleas)", "protocol": "as §1, with “felis)” for “felis) of defined age”, “exposed to filter paper impregnated” for “fed on artificial membranes with blood spiked”, “DMSO-emulsifier-deionized water” for “DMSO-emulsifier-blood”, “contact exposure,” for “feeding,”, “(%” for “(i.e., %”"}, "[3]": {"tested_on": "Fly larvae I (Lucilia cuprina)", "experiment": "Fly larvae contact/feeding assay", "conditions": "48 h, read-out: Inhibition of fly larvae development", "protocol": "Fly larvae I (Lucilia cuprina) were grown in medium spiked with declining concentrations of a test compound (dissolved in a DMSO-emulsifier-deionized water mixture). Inhibition of fly larvae development (%) was assessed after approximately 48 hours of continuous exposure. The vitality of used parasites was confirmed in negative control groups (i.e., an untreated control and a solvent control)."}, "[4]": {"tested_on": "Rhipicephalus microplus tick larvae", "experiment": "Tick larvae contact assay", "conditions": "read-out: Tick inhibition (% of damage+dead ticks)", "protocol": "Tick larvae (Rhipicephalus microplus) were immersed for approximately 3 minutes in declining concentrations of a test compound (dissolved in a DMSO-emulsifier-deionized water mixture). Tick inhibition (% of damage+dead ticks per test concentration) was assessed approximately 24 hours after contact exposure. The vitality of used parasites was confirmed in negative control groups (i.e. an untreated control and a solvent control)."}, "[5]": {"tested_on": "Ctenocephalides felis fleas", "experiment": "Dog - efficacy against fleas", "type": "in vivo", "conditions": "for efficacy against fleas in dogs (conclusion): 10 mg/kg; for therapeutic efficacy against fleas (active = efficacy ≥80 percent): D2", "protocol": "Beagle dogs were infested (whole body) with 80 Ctenocephalides felis fleas and 50 Rhipicephalus sanguineus or Haemaphysalis elliptica ticks (sex ratio 1:1) two days before the treatment day (Day 0), and repeatedly thereafter. Dogs of treatment groups were treated with 10 mg/kg bodyweight of a test compound orally (compound weighed in gelatin capsule), topically (spot-on, DMA 92%/DEET 8%) or subcutaneously (PEG 200 90%/water for injection 10%). Dogs of the negative control group received only an empty gelatin capsule orally and the spot-on formulation excipients topically.\nCompounds with efficacy ≥80 percent were found active."}, "[6]": {"tested_on": "larvae of Rhipicephalus microplus isolates with known resistance profiles", "experiment": "Tick larvae resistance assay (larval immersion test, LIT)", "protocol": "A tick resistance assay (i.e., larval immersion test, LIT) was carried out using larvae of several Rhipicephalus microplus isolates with known resistance profiles (i.e.: fully susceptible; resistant to dieldrin, coumaphos, DDT, chlorpyriphos, flumethrin, cypermethrin, amitraz, fluazuron).\nTick larvae (Rhipicephalus microplus) were immersed for approximately 3 minutes in test compound solution. Tick mortality was assessed approximately 24 hours after contact exposure. The vitality of used parasites was confirmed in negative control groups (i.e., an untreated control and a solvent control)."}, "Lepeophtheirus salmonis [7]": {"tested_on": "Lepeophtheirus salmonis", "experiment": "Salmon - in vivo efficacy against sea lice using in-feed administration", "conditions": "for prophylactic efficacy against re-infestation: 1 mg/kg in feed for 7 days", "protocol": "Commercial fish feed pellets were coated with formulated test compound. As formulation DMSO 5%/fish oil 95% was used. Salmon (Salmo solar) were treated orally with 1 mg/kg fish biomass via coated feed for 7 consecutive days. Salmon of the negative control groups received only feed coated with the excipients of the formulation.\nFish of the therapeutic groups were infested with Lepeophtheirus salmonis copepodids twice before treatment (around day −28 and day −3).\nFish of the prophylactic groups were infested at several time points after treatment in 2-week intervals. The fish were assessed for (pre-)adult sea lice approximately 3 weeks after each re-infestation. At each assessment, all (pre-)adult sea lice were removed from the fish. […] Efficacy is expressed as a % reduction of sea lice in treated groups versus a control group using the Abbott's formula."}, "Lepeophtheirus salmonis [8]": {"tested_on": "Lepeophtheirus salmonis", "experiment": "Salmon - in vivo efficacy against sea lice using gavage administration", "conditions": "5 mg/kg once by gavage, counted around day 28", "summary_of_the_method": "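Salmon given a single oral gavage of 5 mg/kg in 5% DMSO/95% fish oil on day 0, with vehicle controls. L. salmonis copepodid infestations around days −28, −3 and 17; lice counted by stage around day 28, efficacy as % reduction versus control by Abbott's formula.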"}, "[9]": {"experiment": "In vitro test of rain fastness", "type": "physicochemical", "conditions": "5% solution in Miglyol 840 on rabbit hide, 4 hours, then 30 minutes in water", "protocol": "In addition to good absorbance, the composition according to the invention has a high resistance to water. After applying a 5% solution of Compound 453 in Miglyol 840 to rabbit hide and allowing to sit for 4 hours, the sample was soaked in water for 30 minutes."}, "[10]": {"tested_on": "mobile sea lice stages of Lepeophtheirus salmonis-isolates with known resistance profiles", "experiment": "Sea lice resistance assay", "protocol": "A sea lice resistance assay was carried out using mobile sea lice stages (i.e., pre-adults, adults) of several Lepeophtheirus salmonis-isolates with known resistance profiles (i.e.: fully susceptible, resistant to azametiphos (OP), emamectin benzoate (ML), deltamethrin (SP). Sea lice were exposed to seawater spiked with declining concentrations of a test compound (dissolved in a PEG300/sea-water mixture). Sea lice inhibition (% of dead+damaged sea lice) was assessed after approximately 1, 24 and 48 hour/s of continuous exposure in comparison to a negative (solvent) control group."}, "[11]": {"conditions": "1 mg/kg fish biomass via coated feed for 7 consecutive days"}}, "data": [{"compound": "O=C(Nc1ccc(F)cc1F)c1cc(NC(=O)[C@H]2[C@H](c3ccc(F)c(Cl)c3)C2(Cl)Cl)ccc1Cl", "note": "[Compound 197]", "values": [{"measurement": "inhibition at 1 ppm", "setting": "[1]", "result": 80, "unit": "%"}, {"measurement": "inhibition at 1000 ppm", "setting": "[2]", "result": 80, "unit": "%"}, {"measurement": "inhibition at 100 ppm", "setting": "[3]", "result": 80, "unit": "%"}, {"measurement": "inhibition at 25 µM", "setting": "[4]", "result": "≥ 80", "unit": "%"}, {"measurement": "inhibition at 49 µM", "setting": "[4]", "result": 80, "unit": "%"}, {"measurement": "inhibition at 388 µM", "setting": "[4]", "result": 80, "unit": "%"}, {"measurement": "inhibition at 100 ppm", "setting": "[4]", "result": 80, "unit": "%"}, {"measurement": "efficacy against fleas in dogs (conclusion)", "setting": "[5]", "result": "therapeutic efficacy"}, {"measurement": "therapeutic efficacy against fleas (active = efficacy ≥80 percent)", "setting": "[5]; 10 mg/kg oral", "result": "active"}, {"measurement": "therapeutic efficacy against fleas (active = efficacy ≥80 percent)", "setting": "[5]; 10 mg/kg topical spot-on", "result": "active"}, {"measurement": "LC50", "setting": "[6]; isolate resistant to Coumaphos, Flumethrin, Cypermethrin", "result": 0.343, "unit": "ppm"}, {"measurement": "LC50", "setting": "[6]; isolate resistant to Coumaphos, Flumethrin, Cypermethrin, Amitraz", "result": 0.375, "unit": "ppm"}, {"measurement": "LC50", "setting": "[6]; isolate resistant to DDT, Dieldrin, Coumaphos", "result": 0.346, "unit": "ppm"}, {"measurement": "LC50", "setting": "[6]; isolate resistant to DDT, Dieldrin, Coumaphos, Chlorpyriphos", "result": 0.335, "unit": "ppm"}, {"measurement": "LC50", "setting": "[6]; isolate resistant to Dieldrin, Coumaphos, Fluazuron", "result": 0.270, "unit": "ppm"}, {"measurement": "LC50", "setting": "[6]; isolate: Fully susceptible", "result": 0.288, "unit": "ppm"}]}, {"compound": "O=C(Nc1ncc(F)cc1F)c1cc(NC(=O)[C@H]2[C@H](c3cc(Cl)cc(Cl)c3)C2(Cl)Cl)ccc1Cl", "note": "[Compound 453]", "values": [{"measurement": "therapeutic efficacy against (pre-)adult sea lice", "setting": "Lepeophtheirus salmonis [7]; [11]", "result": 100, "unit": "%"}, {"measurement": "therapeutic efficacy against juvenile sea lice", "setting": "Lepeophtheirus salmonis [7]; [11]", "result": 100, "unit": "%"}, {"measurement": "prophylactic efficacy against re-infestation", "setting": "Lepeophtheirus salmonis [7]; re-infestation D14", "result": 100, "unit": "%"}, {"measurement": "prophylactic efficacy against re-infestation", "setting": "Lepeophtheirus salmonis [7]; re-infestation D28", "result": 99.9, "unit": "%"}, {"measurement": "prophylactic efficacy against re-infestation", "setting": "Lepeophtheirus salmonis [7]; re-infestation D42", "result": 86.0, "unit": "%"}, {"measurement": "prophylactic efficacy at re-infestation on Day 17 (% reduction vs control)", "setting": "Lepeophtheirus salmonis [8]", "result": 100, "unit": "%"}, {"measurement": "efficacy against fleas in dogs (conclusion)", "setting": "[5]", "result": "therapeutic efficacy"}, {"measurement": "therapeutic efficacy against fleas (active = efficacy ≥80 percent)", "setting": "[5]; 10 mg/kg oral", "result": "active"}, {"measurement": "therapeutic efficacy against fleas (active = efficacy ≥80 percent)", "setting": "[5]; 10 mg/kg topical spot-on", "result": "active"}, {"measurement": "presence of Compound 453 in the water", "setting": "[9]", "result": "below the detection limit"}, {"measurement": "weight loss after soaking in water", "setting": "[9]", "result": 4, "unit": "%"}, {"measurement": "effectiveness against sensitive isolate and multi-resistant isolate", "setting": "[10]", "result": "equally effective"}, {"measurement": "EC50", "setting": "[10]; multi-resistant isolate, after 24 hours", "result": 1.96, "unit": "ppb"}, {"measurement": "EC50", "setting": "[10]; multi-resistant isolate, after 48 hours", "result": 0.64, "unit": "ppb"}, {"measurement": "EC50", "setting": "[10]; sensitive isolate, after 24 hours", "result": 1.20, "unit": "ppb"}, {"measurement": "EC50", "setting": "[10]; sensitive isolate, after 48 hours", "result": 0.29, "unit": "ppb"}]}]}
